Source: patent publication US20160367457A1, “CAPRYLOYL ALANINE ETHYLESTER AS A PENETRATION ENHANCER” (BASF SE, priority 2014, published 2016)
Read-outs that look alike come from different tables or passages of the source.

Experiments:
[1] = Penetration study with 5% enhancer incorporated into W/O formulation
Method: (§1) Permeation study was performed in four fold determination with the test and the reference item at human skin. For the transport studies the dermatomized skin was cut with a punch of 24 mm diameter and the thickness of the skin was measured at five points for each sample. Subsequently the skin pieces were fastened on cylindrical glass Franz cells which are employed as diffusion chambers. The lower (acceptor) chamber has a volume of approximately 12 ml, while the volume of the upper (donor) chamber is variable. The skin was inserted with the dermal layer facing downwards so that the skin's corneous layer is uppermost.
PE2 (C12) which is solid at room temperature, was gently melted in a water bath (at 35 to 40° C.) and applied as liquid. After 30 min of incubation the liquid penetration enhancers were gently removed with cotton balls. In the case of PE2 which solidified on the skin, the solid film was removed with a pincer. Thereafter 50 μl of the formulations were applied at the surface of the skin. The acceptor medium was thermostated at 32° C. and continuously stirred at a rate of 400 rpm. The diffusion area of skin was approximately 1.8 cm^2. Permeation through the skin into the acceptor medium was monitored over a period of 24 hours. The acceptor medium was sampled at 4 different time points, after 1, 3, 6 and 24 hours, by withdrawing samples of 200 μl. After withdrawing a sample volume, the acceptor medium was refilled with pre-warmed KRB/KRB+2% BSA. The concentration of active ingredients in the acceptor chamber was corrected to take the dilution introduced by sampling into account. Taken samples were mixed with 210 μl or 500 μl of scintillation cocktail for at least 1 hour at 200 rpm and radioactivity measured by scintillation counting.
The described study was partly repeated in a similar experimental setup with three test substances to act as skin permeation enhancer when incorporated into the cosmetic formulation and not applied directly to the skin: • Dimethyl isosorbide (DMI) a well-known penetration enhancer—used in cosmetics • Penetration Enhancer 1 (PE1)—capryloyl alanine ethylester • Penetration Enhancer 2 (DGME)—prior art penetration enhancer Transcutol (Gattefossee), diethylene glycol mono ethyl ether
Formulation 1 (W/O formulation) served as a basic formulation and as a reference without any penetration enhancer. This time the skin was not pre-incubated with the selected penetration enhancers (DMI, PE1 and DGME), but 5% of the respective penetration enhancer was incorporated into formulation 1 and the resulting formulations were spiked once again with radiolabeled ^3H-caffeine or ^3H-Vitamin E acetate.

[2] = Penetration study with the enhancer applied directly to the skin (preincubation), Franz cells, radiolabeled markers from W/O formulation 1
Method: The aim of the present study was to determine the potency of three test substances (one being the closest prior art penetration enhancer) to act as skin permeation enhancer in cosmetic formulations: • Dimethyl isosorbide (DMI) a well-known penetration enhancer—used in cosmetics • Penetration Enhancer 1 (PE1)—capryloyl alanine ethylester • Penetration Enhancer 2 (PE2)—closest prior art molecule dodecyloyl alanine ethylester
The tests were performed by an independent test institute specialized in penetration testing. […] The skin was pre-incubated with the selected penetration enhancers (DMI, PE1 and PE2) and after incubation time of 30 min formulation was removed from the skin surface and formulation 1 spiked with radiolabeled ^3H-caffeine or ^3H-Vitamin E acetate was applied.
The impact of the three penetration enhancers on the skin absorption rate of caffeine and Vitamin E acetate (representative hydrophilic and lipophilic cosmetic actives, respectively) incorporated into a w/o formulation was investigated. Radiolabeled caffeine and Vitamin E acetate were used as markers. The in vitro skin permeation studies were performed with dermatomized human skin (approximately 500 μm in thickness) over a period of 24 h in triplicate. Samples from the acceptor compartment were taken at four sampling times (1, 3, 6 and 24 h) to screen the permeation enhancement effect.
The transdermal absorption of the test compounds ^3H-caffeine and ^3H-Vitamin E acetate was monitored by measuring the amount of radio labeled substances in the acceptor medium.
The test compounds were quantified by liquid scintillation counting.
In accordance to the SCCP Guidelines of the European Commission the excised human skin from surgery is an appropriate in vitro test system to simulate the permeation and penetration processes of a compound into and across human skin under in vivo conditions.
For the penetration study, the human skin (female abdomen skin) of one donor which was dermatomized to a thickness of 500±100 μm was used and tests were conducted in triplicate. Full-thickness skin was prepared from the skin biopsies and stored at −20° C. […] The skin was used immediately after thawing. Repeated freeze-thaw cycles were avoided.
Formulation 1 (without penetration enhancer) was spiked with radiolabeled ^3H-caffeine (specific activity: 60 Ci/mmol) and ^3H-Vitamin E acetate (specific activity: 50 Ci/mmol) and applied as control directly to the skin. The radio labeled samples were prepared as follows: Formulation 1 was spiked with either radiolabeled ^3H-caffeine or ^3H-Vitamin E acetate resulting in 2960000 cpm/50 μl or 1264557 cpm/50 μl, respectively. One of the three different penetration enhancers (DMI, PE1 and PE2) was applied to the skin prior to the application of the radioactively spiked W/O-formulation.
Krebs Ringer buffer (KRB, pH=7.4) was prepared according to an internal standard operation procedure. KRB was used as the acceptor medium for ^3H-caffeine. For ^3H-Vitamin E acetate, KRB supplemented with 2% bovine serum albumin (BSA) was used as the acceptor medium. Solutions of ^3H-caffeine and ^3H-Vitamin E acetate were used to validate the detection method and to assess linearity.
as §1

[3] = Penetration of the penetration enhancer itself through the skin; type: in vitro ADME
Source text: Furthermore, capryloyl-alanine ethylester can be metabolized in the skin thereby contributing to an improved toxicological profile.

[4] = Hansen Solubility Parameters (HSP) distance to the stratum corneum; type: physicochemical
Source text: Capryloyl alanine ethyl ester turned out to have a smaller Hansen Solubility Parameters (HSP) distance to the stratum corneum than well-known and established references like DMI and ethyldiethylenglycol which indicates a good potential as skin penetration enhancer. Hansen Solubility Parameters are a key indicator for good partitioning into the stratum corneum provided the molecule is liquid at RT and has a small enough molecular volume.

[5] = after 24 hours, skin pre-incubated 30 min with 20 μl enhancer, then W/O formulation 1 with 3H-caffeine, n = 3
[6] = after 24 hours, versus reference without enhancer, preincubation, n = 3
[7] = at 24 hours, skin pre-incubated 30 min with 20 μl enhancer, then W/O formulation 1 with 3H-Vitamin E acetate, n = 3
[8] = at 24 hours, versus reference without enhancer, preincubation, n = 3
[9] = preincubation, 24 h detection time
[10] = preincubation, caffeine in w/o formulation, 24 h

Structure (SMILES) | Effect on transport of caffeine compared to the reference formulation without any enhancer [1] | Average cumulative transport of 3H-caffeine ([1]; human, 24 h, 5 %, pH 7.4) [cpm/cm2] | Enhancement Ratio for 3H-caffeine ([1]; human, 24 h, 5 %, pH 7.4) | Average cumulative transport of 3H-caffeine [2, 5] [dpm/cm^2] | Enhancement Ratio for 3H-caffeine [2, 6] | Average cumulative transport of 3H-Vitamin E acetate [2, 7] [dpm/cm^2] | Enhancement Ratio for 3H-Vitamin E acetate [2, 8] | Effect on transport of Vitamin E acetate [2, 9] | Caffeine transport compared to the control without any penetration enhancer [2, 10] | further results
CCOCCOCCO [DGME, diethylene glycol mono ethyl ether] | slightly enhanced the transport | 278.404 | 1.12 |  |  |  |  |  |  | 
CO[C@H]1CO[C@H]2[C@@H]1OC[C@H]2OC [DMI, Dimethyl isosorbide] |  |  |  | 203120 | 2.40 | 2578 | 1.01 | only a slight penetration enhancing effect | around twice | Average cumulative transport of 3H-caffeine ([1]; at 24 hours, 5% enhancer incorporated into w/o formulation, n = 4): 212.435 cpm/cm2; Enhancement Ratio for 3H-caffeine ([1]; at 24 hours, 5% enhancer incorporated, versus reference formulation 1 without enhancer, n = 4): 0.86; Effect on transport of caffeine compared to the reference formulation without any enhancer ([1]; enhancer incorporated into W/O formulation): slightly decreased transport
CCCCCCCC(=O)N[C@@H](C)C(=O)OCC [PE1, capryloyl alanine ethylester] | most effective permeation enhancer | 342.593 | 1.38 |  |  |  |  |  |  | Penetration of the enhancer itself through the skin compared with DMI [3]: lesser degree than DMI; Effect on transport of Vitamin E acetate [2]: only a slight penetration enhancing effect; Average cumulative transport of 3H-Vitamin E acetate ([2]; female, human, 24 h, pH 7.4): 2712 dpm/cm^2; Average cumulative transport of 3H-caffeine ([2]; female, human, 24 h, pH 7.4): 414024 dpm/cm^2; Caffeine transport compared to the control without any penetration enhancer ([2]; female, human, 24 h, pH 7.4): approximately 5 times; Enhancement Ratio for 3H-Vitamin E acetate ([2]; female, human, 24 h, pH 7.4): 1.06; Enhancement Ratio for 3H-caffeine ([2]; female, human, 24 h, pH 7.4): 4.89; Penetration of Vitamin E acetate with PE1 in comparison to PE2 ([2]; female, human, 24 h, pH 7.4): 1.5 fold; HSP distance to the stratum corneum compared with DMI and ethyldiethylenglycol [4]: smaller
CCCCCCCCCCCC(=O)N[C@@H](C)C(=O)OCC [PE2, dodecyloyl alanine ethylester] |  |  |  | 262929 | 3.11 | 1814 | 0.70 | reduced the transport | approximately 3 times | 
